Measurements from article PMC3961306, “Comparison of the Cancer Gene Targeting and Biochemical Selectivities of All Targeted Kinase Inhibitors Approved for Clinical Use” (PLoS ONE, 2014).

Legend:
Test in all cases: Kinase profiling in a biochemical assay panel (mobility shift assays and ELISA), %-inhibition at 1 μM; selectivity entropy
[1] = molecular target: panel of more than 300 wild-type and mutant kinases (313 kinase panel) (Homo sapiens, UniProt Q9UKE5)
[2] = molecular target: panel of more than 300 wild-type and mutant kinases (313 kinase panel) (Homo sapiens, UniProt P31749)
[3] = molecular target: T1, panel of more than 300 wild-type and mutant kinases (313 kinase panel) (Homo sapiens, UniProt Q9NWZ3)
T1 sequence (Q9NWZ3 1-460): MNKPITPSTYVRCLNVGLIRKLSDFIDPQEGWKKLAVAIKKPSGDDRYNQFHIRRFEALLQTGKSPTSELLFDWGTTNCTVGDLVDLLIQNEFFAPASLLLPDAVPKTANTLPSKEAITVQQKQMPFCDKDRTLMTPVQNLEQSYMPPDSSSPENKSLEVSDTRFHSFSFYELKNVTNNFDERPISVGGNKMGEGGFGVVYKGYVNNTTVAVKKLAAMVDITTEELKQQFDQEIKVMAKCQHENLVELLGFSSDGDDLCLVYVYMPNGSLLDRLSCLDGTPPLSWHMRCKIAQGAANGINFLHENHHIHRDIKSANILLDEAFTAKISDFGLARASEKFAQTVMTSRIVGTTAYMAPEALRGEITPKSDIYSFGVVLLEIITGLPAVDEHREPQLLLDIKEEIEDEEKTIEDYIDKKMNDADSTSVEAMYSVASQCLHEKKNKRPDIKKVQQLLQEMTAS

[4] = molecular target: panel of more than 300 wild-type and mutant kinases (313 kinase panel) (Homo sapiens, UniProt P08581, Y1235D)
[5] = molecular target: T2, panel of more than 300 wild-type and mutant kinases (313 kinase panel) (Homo sapiens, UniProt P54760)
T2 sequence (P54760 16-987): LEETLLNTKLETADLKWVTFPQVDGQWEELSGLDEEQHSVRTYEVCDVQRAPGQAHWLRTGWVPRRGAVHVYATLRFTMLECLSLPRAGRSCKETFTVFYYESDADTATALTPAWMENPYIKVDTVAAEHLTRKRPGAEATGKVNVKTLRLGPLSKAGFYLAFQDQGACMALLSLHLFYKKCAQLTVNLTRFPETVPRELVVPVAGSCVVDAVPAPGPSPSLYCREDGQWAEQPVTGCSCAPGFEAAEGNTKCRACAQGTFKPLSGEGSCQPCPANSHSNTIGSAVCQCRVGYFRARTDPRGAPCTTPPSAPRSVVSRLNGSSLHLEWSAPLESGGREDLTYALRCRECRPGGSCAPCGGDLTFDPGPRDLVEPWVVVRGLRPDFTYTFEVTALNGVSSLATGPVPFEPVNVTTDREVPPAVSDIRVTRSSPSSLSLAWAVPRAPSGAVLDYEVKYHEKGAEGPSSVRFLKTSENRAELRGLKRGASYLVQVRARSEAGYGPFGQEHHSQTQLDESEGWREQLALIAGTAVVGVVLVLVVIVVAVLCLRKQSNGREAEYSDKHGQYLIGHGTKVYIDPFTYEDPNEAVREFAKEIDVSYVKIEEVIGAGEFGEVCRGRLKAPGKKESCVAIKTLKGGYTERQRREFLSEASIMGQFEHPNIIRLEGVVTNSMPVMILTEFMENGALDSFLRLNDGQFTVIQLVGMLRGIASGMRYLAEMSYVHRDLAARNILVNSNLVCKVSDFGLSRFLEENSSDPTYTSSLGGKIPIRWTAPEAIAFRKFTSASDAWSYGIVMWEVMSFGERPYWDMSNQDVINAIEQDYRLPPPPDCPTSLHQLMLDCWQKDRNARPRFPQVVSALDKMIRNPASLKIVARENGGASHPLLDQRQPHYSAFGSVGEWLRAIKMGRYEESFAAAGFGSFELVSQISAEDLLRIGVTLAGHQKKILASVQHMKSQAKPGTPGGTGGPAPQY

[6] = molecular target: panel of more than 300 wild-type and mutant kinases (313 kinase panel) (Homo sapiens, UniProt O75116)
[7] = molecular target: T3, panel of more than 300 wild-type and mutant kinases (313 kinase panel) (Homo sapiens, UniProt Q13976)
T3 sequence (Q13976 1-671): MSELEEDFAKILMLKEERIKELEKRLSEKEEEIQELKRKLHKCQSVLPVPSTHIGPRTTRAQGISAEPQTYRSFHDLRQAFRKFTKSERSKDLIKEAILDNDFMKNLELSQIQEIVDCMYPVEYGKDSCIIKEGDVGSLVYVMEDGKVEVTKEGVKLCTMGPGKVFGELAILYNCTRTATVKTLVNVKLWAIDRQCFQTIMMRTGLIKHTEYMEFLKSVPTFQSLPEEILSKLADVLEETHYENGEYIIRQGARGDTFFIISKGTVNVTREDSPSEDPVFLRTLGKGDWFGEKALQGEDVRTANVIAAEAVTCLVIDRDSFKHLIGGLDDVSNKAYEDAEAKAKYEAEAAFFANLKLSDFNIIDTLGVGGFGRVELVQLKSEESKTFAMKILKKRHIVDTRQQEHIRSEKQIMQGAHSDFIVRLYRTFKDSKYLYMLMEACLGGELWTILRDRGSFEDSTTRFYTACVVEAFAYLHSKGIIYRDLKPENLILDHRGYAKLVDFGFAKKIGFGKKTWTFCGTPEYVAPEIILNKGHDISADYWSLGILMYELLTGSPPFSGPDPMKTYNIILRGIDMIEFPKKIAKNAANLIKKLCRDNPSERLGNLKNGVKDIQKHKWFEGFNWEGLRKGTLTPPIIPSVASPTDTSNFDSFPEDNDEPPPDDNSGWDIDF

[8] = molecular target: panel of more than 300 wild-type and mutant kinases (313 kinase panel) (Homo sapiens, UniProt Q9Y6E0)
[9] = kinase MET(Y1235D), compound at 1 μM

Sequence of panel of more than 300 wild-type and mutant kinases (313 kinase panel) (Homo sapiens, UniProt P31749) (P31749 whole entry, change not shown): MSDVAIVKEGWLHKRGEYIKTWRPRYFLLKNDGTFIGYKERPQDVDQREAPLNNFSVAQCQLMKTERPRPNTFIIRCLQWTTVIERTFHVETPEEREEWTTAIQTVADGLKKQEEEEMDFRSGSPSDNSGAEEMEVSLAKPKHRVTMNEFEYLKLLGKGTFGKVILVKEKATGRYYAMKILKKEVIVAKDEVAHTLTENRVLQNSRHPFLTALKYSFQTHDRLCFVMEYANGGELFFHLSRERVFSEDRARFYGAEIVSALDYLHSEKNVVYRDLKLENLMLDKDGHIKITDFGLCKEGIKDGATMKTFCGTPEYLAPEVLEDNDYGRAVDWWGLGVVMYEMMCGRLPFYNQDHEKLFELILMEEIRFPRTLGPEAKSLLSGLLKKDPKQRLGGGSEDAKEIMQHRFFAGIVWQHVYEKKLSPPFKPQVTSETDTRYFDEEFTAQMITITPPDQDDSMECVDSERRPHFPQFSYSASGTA
Sequence of panel of more than 300 wild-type and mutant kinases (313 kinase panel) (Homo sapiens, UniProt P08581, Y1235D) (P08581 25-1390 Y1235D): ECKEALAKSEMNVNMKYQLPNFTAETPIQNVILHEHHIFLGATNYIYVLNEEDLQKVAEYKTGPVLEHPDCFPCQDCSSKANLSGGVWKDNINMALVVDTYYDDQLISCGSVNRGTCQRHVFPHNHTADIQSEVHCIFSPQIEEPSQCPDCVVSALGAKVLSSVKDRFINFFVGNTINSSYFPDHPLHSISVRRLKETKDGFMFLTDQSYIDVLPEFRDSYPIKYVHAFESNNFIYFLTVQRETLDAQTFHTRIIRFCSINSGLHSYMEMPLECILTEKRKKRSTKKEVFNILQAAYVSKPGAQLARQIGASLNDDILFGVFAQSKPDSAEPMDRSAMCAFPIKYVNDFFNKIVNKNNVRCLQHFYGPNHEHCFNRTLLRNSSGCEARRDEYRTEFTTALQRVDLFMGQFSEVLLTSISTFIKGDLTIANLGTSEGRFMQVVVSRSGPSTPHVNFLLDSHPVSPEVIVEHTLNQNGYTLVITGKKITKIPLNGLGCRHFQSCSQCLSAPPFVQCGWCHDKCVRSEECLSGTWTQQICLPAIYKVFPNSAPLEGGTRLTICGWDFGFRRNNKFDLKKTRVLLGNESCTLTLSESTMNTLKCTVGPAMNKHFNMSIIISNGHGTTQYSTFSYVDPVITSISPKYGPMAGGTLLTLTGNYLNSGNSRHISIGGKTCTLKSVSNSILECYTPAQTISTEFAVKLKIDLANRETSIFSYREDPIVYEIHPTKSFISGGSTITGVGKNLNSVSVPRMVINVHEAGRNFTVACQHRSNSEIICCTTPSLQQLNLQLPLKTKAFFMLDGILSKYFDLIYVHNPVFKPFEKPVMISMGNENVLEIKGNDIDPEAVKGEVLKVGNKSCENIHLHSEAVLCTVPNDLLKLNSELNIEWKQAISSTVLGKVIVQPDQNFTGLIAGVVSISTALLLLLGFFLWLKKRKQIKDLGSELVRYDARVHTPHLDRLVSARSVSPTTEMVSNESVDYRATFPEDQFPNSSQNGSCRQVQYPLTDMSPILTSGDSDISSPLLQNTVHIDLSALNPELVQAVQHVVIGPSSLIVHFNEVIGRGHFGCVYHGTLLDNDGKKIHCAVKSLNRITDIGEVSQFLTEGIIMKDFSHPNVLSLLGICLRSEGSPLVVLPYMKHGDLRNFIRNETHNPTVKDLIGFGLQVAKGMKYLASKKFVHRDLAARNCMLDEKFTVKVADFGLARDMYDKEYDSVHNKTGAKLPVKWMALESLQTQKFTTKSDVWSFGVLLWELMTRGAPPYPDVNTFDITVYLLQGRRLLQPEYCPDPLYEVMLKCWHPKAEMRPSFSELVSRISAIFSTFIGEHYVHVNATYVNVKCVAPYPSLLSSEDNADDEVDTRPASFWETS
Sequence of panel of more than 300 wild-type and mutant kinases (313 kinase panel) (Homo sapiens, UniProt Q9UKE5) (Q9UKE5 whole entry, change not shown): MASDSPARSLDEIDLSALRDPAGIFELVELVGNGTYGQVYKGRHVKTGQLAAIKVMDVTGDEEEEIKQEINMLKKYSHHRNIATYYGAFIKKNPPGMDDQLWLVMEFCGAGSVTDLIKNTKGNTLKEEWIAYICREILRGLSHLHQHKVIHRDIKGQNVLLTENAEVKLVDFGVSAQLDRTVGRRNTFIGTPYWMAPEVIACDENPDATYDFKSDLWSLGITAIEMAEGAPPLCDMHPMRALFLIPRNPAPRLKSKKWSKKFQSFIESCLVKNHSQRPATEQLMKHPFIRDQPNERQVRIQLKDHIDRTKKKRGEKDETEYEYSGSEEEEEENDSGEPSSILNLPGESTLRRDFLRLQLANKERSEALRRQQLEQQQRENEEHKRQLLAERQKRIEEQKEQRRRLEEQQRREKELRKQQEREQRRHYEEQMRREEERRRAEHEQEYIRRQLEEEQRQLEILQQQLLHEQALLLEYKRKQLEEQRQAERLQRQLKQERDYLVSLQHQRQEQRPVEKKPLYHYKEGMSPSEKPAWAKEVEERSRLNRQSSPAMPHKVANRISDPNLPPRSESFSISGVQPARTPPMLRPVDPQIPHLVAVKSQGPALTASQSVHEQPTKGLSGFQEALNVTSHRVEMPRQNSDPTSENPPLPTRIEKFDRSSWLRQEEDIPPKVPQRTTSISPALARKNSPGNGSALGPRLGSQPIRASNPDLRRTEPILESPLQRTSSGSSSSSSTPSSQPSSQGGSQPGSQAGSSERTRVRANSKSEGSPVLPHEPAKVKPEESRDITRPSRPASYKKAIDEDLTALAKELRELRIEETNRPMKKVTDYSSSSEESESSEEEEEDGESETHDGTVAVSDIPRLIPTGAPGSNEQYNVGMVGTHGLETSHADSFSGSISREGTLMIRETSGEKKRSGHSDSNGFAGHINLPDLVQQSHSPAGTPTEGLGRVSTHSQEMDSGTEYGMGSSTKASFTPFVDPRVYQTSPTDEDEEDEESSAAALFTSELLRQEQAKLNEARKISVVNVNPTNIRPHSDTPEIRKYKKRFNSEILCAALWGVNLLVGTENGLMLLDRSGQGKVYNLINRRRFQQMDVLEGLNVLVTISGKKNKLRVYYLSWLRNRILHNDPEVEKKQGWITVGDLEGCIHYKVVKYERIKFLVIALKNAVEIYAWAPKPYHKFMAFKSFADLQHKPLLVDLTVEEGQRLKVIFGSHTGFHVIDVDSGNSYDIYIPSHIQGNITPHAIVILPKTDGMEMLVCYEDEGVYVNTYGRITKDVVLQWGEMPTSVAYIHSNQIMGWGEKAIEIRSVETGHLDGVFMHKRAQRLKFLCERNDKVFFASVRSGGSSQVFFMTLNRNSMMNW

| SMILES | %-inhibition of TNIK ([1]; kinase TNIK, 1 μM) | %-inhibition, AKT1 ([2]; 1 µM) | %-inhibition of IRAK4 ([3]; kinase IRAK4, compound at 1 μM) | %-inhibition of MET(Y1235D) [4, 9] | %-inhibition of EPHB4 ([5]; kinase EPHB4, compound at 1 μM) | %-inhibition of ROCK2 ([6]; kinase ROCK2, 1 μM) | %-inhibition of PGK ([7]; kinase PGK, 1 μM) | %-inhibition, AKT1 ([2]; kinase AKT1, 1 μM compound) | %-inhibition of MST3 ([8]; kinase MST3, 1 μM) | %-inhibition of TNIK ([1]; 1 µM) | %-inhibition of IRAK4 ([3]; 1 µM) | %-inhibition of MET(Y1235D) ([4]; 1 µM) | %-inhibition of MST3 ([8]; 1 µM) | %-inhibition of EPHB4 ([5]; 1 µM) | %-inhibition of ROCK2 ([6]; 1 µM) | %-inhibition of PGK ([7]; 1 µM) |
| --- | --- | --- | --- | --- | --- | --- | --- | --- | --- | --- | --- | --- | --- | --- | --- | --- |
| COc1cc(Nc2c(C#N)cnc3cc(OCCCN4CCN(C)CC4)c(OC)cc23)c(Cl)cc1Cl [bosutinib] | 102% | -5.47% | 27% | 14% | 96% | 28% | -3.22% |  |  |  |  |  |  |  |  |  |
| COc1cc2nccc(Oc3ccc(NC(=O)C4(C(=O)Nc5ccc(F)cc5)CC4)cc3)c2cc1OC [cabozantinib] | 16% |  | -4% |  | 96% | 15% | -3% | -4.52% | 0.432% |  |  |  |  |  |  |  |
| C[C@@H](Oc1cc(-c2cnn(C3CCNCC3)c2)cnc1N)c1c(Cl)ccc(F)c1Cl [crizotinib] | 11% |  | 8% |  | 83% | 4.25% | -2.6% | -7% | 11% |  |  |  |  |  |  |  |
| CC(C)(C)c1nc(-c2cccc(NS(=O)(=O)c3c(F)cccc3F)c2F)c(-c2ccnc(N)n2)s1 [dabrafenib] | 15% |  |  | 25% |  | 14% |  |  | 0.532% |  |  |  |  |  |  |  |
| Cc1nc(Nc2ncc(C(=O)Nc3c(C)cccc3Cl)s2)cc(N2CCN(CCO)CC2)n1 [dasatinib] |  |  |  |  |  |  |  |  | 20% |  |  |  |  |  |  |  |
| C#Cc1cccc(Nc2ncnc3cc(OCCOC)c(OCCOC)cc23)c1 [erlotinib] |  | 12% |  |  |  |  |  |  |  | 34% | 3% | 22% | 3.69% | 33% | 4.44% | 1.68% |
| CO[C@H]1C[C@@H]2CC[C@@H](C)[C@@](O)(O2)C(=O)C(=O)N2CCCC[C@H]2C(=O)O[C@H]([C@H](C)C[C@@H]2CC[C@@H](OCCO)[C@H](OC)C2)CC(=O)[C@H](C)/C=C(\C)[C@@H](O)[C@@H](OC)C(=O)[C@H](C)C[C@H](C)/C=C/C=C/C=C/1C [everolimus] | -3% |  | -6% | -5% | -4.49% | -5.49% | -6.44% | -7% | 0.288% |  |  |  |  |  |  |  |
| O=S(=O)(c1cccc2cnccc12)N1CCCNCC1 [fasudil] | 4% |  | -4.68% | -2.65% | -5.34% |  | 44% | 4.44% | -1.29% |  |  |  |  |  |  |  |
| CS(=O)(=O)CCNCc1ccc(-c2ccc3ncnc(Nc4ccc(OCc5cccc(F)c5)c(Cl)c4)c3c2)o1 [lapatinib] | 25% |  | -2% | 2% | -0.865% |  |  | 2.63% | -1.84% |  |  |  |  |  | -2% | -1% |
| Cc1cn(-c2cc(NC(=O)c3ccc(C)c(Nc4nccc(-c5cccnc5)n4)c3)cc(C(F)(F)F)c2)cn1 [nilotinib] | 11% |  | -29% | -4.56% |  | -27% |  | 11% | 0.797% |  |  |  |  | 91% |  | -13% |
| Cc1ccc(Nc2nccc(N(C)c3ccc4c(C)n(C)nc4c3)n2)cc1S(N)(=O)=O [pazopanib] | 83% |  | -0.622% |  | 16% | -0.78% | -3% | -2% | -4.48% |  |  |  |  |  |  |  |
| Cc1ccc(C(=O)Nc2ccc(CN3CCN(C)CC3)c(C(F)(F)F)c2)cc1C#Cc1cnc2cccnn12 [ponatinib] | 96% |  | 29% |  | 101% | 63% | -0.866% |  |  |  |  |  |  |  |  |  |
| CNC(=O)c1cc(Oc2ccc(NC(=O)Nc3ccc(Cl)c(C(F)(F)F)c3)c(F)c2)ccn1 [regorafenib] | 42% |  | 1.07% | -1.72% | 80% | 2.65% | -7% | -5.68% | -6.62% |  |  |  |  |  |  |  |
| N#CC[C@H](C1CCCC1)n1cc(-c2ncnc3[nH]ccc23)cn1 [ruxolitinib] | 0.811% |  |  |  | 0.569% | 87% | 14% | -5% | -1.15% |  | -3.69% | -0.936% |  |  |  |  |
| CCN(CC)CCNC(=O)c1c(C)[nH]c(/C=C2\C(=O)Nc3ccc(F)cc32)c1C [sunitinib] | 94% |  | 48% |  |  |  |  |  |  |  |  |  |  |  |  |  |
| COc1cc2c(Nc3ccc(Br)cc3F)ncnc2cc1OCC1CCN(C)CC1 [vandetanib] | 66% | -4.52% |  |  |  | -0.708% | -3.59% |  | 7% |  |  |  |  |  |  |  |
